This note sets out measurements from ChEMBL document CHEMBL6127021, “Inhibition of protein tyrosine phosphatase 1B by serratane triterpenes from Huperzia serrata and their molecular docking study” (Bioorg Med Chem Lett, 2024).

The target of test [1] is T1, Tyrosine-protein phosphatase non-receptor type 1 (Homo sapiens, UniProt P18031).
T1 sequence (P18031 whole entry): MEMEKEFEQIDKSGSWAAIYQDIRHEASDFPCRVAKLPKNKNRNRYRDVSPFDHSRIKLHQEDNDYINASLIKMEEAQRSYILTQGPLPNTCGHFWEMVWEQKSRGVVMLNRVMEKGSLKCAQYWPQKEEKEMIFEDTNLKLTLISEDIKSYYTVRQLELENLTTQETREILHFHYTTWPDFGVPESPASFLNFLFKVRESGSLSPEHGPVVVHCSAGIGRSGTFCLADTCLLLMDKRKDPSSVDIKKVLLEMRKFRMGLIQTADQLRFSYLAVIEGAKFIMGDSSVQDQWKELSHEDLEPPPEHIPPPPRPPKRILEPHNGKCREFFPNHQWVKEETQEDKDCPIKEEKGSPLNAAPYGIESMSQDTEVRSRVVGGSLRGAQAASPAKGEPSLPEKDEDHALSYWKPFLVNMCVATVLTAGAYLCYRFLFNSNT
The test can be described thus: Competitive inhibition of recombinant human PTP1B using p-NPP as substrate assessed as inhibition constant incubated for 30 mins by Lineweaver-Burk plot analysis.

Test [2] addresses T1, Tyrosine-protein phosphatase non-receptor type 1. The test can be described thus: Inhibition of recombinant human PTP1B using p-NPP as substrate incubated for 30 mins by absorbance based microplate reader.

Some results are limits rather than exact numbers.

For the compound `CC1(C)[C@@H](O)CC[C@@]2(C)[C@H]1CC[C@@]1(C)CC3=CC[C@H]4C(C)(C)[C@@H](O)CC[C@]4(C)[C@H]3CC[C@@H]12`, the Ki (as a rule, a dissociation constant, usually derived from enzyme kinetics or from competition with a known ligand) in test [1] was determined as 12.2 µM. For the same compound, in test [2], the IC50 (commonly the midpoint of a concentration-inhibition curve) was determined as 7.28 µM.

As for `CC(=O)O[C@H]1CC[C@@]2(C)[C@@H](CC[C@]3(O)C[C@]4(C)CC[C@H]5C(C)(C)[C@@H](O)CC[C@]5(C)[C@H]4CC[C@@H]32)C1(C)C`, the IC50 in test [2] was over 30 µM.

Regarding `CC(=O)O[C@H]1CC[C@@]2(C)[C@@H](CC[C@@]3(C)CC4=CC[C@H]5C(C)(C)[C@@H](O)CC[C@]5(C)[C@H]4CC[C@@H]32)C1(C)C`, in test [2], the IC50 was over 30 µM.

Regarding `CC1(C)[C@@H](O)CC[C@@]2(C)[C@H]1CC[C@@]1(C)CC3=CC[C@H]4C(C)(C)[C@H](O)CC[C@]4(C)[C@H]3CC[C@@H]12`, the Ki in test [1] worked out at 11.9 µM. The IC50 in test [2] was found to be 4.65 µM.
